Results reported in patent publication US20230277483A1, “COMPOSITIONS AND METHODS TO TREAT INFLAMMATION” (University of Iowa Research Foundation, priority 2022, published 2023).

What was measured:
[1] = system: epidydimal white adipose tissues (eWAT); test: eWAT explants from mice on a HFD for 16 weeks; format: cell-based, mouse; details: HCA at 0.5 and 1.0 μM; 16 hours post treatment
Method: In addition, freshly isolated epidydimal white adipose tissues (eWAT) from mice on a HFD for 16 weeks were minced and cultured in 24-well plates and treated with HCA at 0.5 and 1.0 μM in DMEM/F-12 containing 10% cosmic calf serum (CCS) and 1% penicillin-streptomycin (basal growth media, BGM). […] These preliminary data are strong evidence that Sg metabolites have the potential to modulate host inflammatory responses and attenuate inflammation.

[2] = system: oral and fecal microbiomes of obese mice; test: Oral and fecal microbiome composition (16S rRNA) in DIO mice; format: in vivo, mouse; details: 100 μl of HCA at 0.2 and 0.5 μM I.P. three times a week for 3 weeks
Method: HCA promotes proliferation of health related bacteria and inhibits proliferation and attachment of periodontopathogenic bacteria. Promoting the growth of health-related commensal bacteria while inhibiting proliferation and attachment of pathogenic bacteria may be effective at preventing or treating periodontal inflammation. To determine if HCA has an effect on the growth properties of commensal bacteria and periodontopathogens, HCA at different concentrations was added to aerobic culture of S. mitis and S. oralis and anaerobic culture of T. denticola as described in our published manuscript (see detail in Shu et al, Journal of Periodontology, 2022). FIGS. 18A-C summarize the functions of HCA on the proliferation of specific commensal and pathogenic bacteria. […] Furthermore, the function of HCA on P. gingivalis attachment, a key parameter of adhesion and biofilm formation by periodontopathogenic bacteria, was investigated. […] The composition of the microbiomes was determined by amplifying the V3 and V4 regions of the 16S rRNA genes. Raw data in FASTQ format were filtered and denoised using DADA2 (Divisive Amplicon Denoising Algorithm) to generate amplicon sequence variants (ASV) or operational taxonomical units (OTUs) that were then analyzed by QIIME2.

[3] = system: HGF; test: Anti-inflammatory miR expression after Pg-LPS challenge; format: cell-based, human; details: 24 hours after Pg-LPS challenge
Method: FIGS. 11A-11B. Sg metabolites upregulate anti-inflammatory miRs in human macrophages and HGF. A-B: Relative transcript changes of miR-200c, 146a, and 21 in HGF (A) and human MDM (B) treated with AICAR, MA, HCA, and HPLA 24 hours after Pg-LPS challenge; performed in duplicate.

## O=C(O)CCCCCO [HCA, 6-hydroxycaproic acid]
[1]
  protein level of IL-6 in cultured media: significantly reduced
  transcripts of IL-6, IL-1β, and Nos2: significantly reduced
[2]
  effect on composition of the microbiomes: dose dependent
  representation of Streptococcus danieliae and other unclassified streptococci in the oral microbiome: large increases
[3]
  anti-inflammatory miRs (miR-200c, 146a, and 21): upregulate
